# In BindingDB's records for doi:10.1021/jm00043a011 (University of Athens, 1994):
# *1 amine or outer side, *2 acyl side, *3 side chain or, on linkers, in order; H or OH if unused. Where a SMILES comes first, the peptide text is derived from it. [ ]: non-standard residue; d: D form. PheΨ(PO2HCH2)Gly = O=C(CCP(=O)(O)[C@H](Cc1ccccc1)N[*:1])[*:2]; X2 = O=C(CCP(=O)(O)[C@@H](Cc1ccccc1)N[*:1])[*:2]; X1 = O=C(CCP(O)(O)=C(Cc1ccccc1)N[*:1])[*:2]; Nle = CCCC[C@H](N)C(=O)O
# Experiments:
# [1] = Inhibition of bacterial collagenase from corynebacterium rathaii
# [2] = Binding constant containing a pseudophenylalanine residue
# [3] = as above; remark: listed apart in the source
Structure (SMILES),Ki [1] [µM],Ki [2] [µM],Ki [3] [µM]
C[C@@H]1NC(=O)[C@@H]2CCCN2C(=O)[C@H](C)NC(=O)CCP(=O)(O)[C@@H](Cc2ccccc2)NC(=O)[C@@H]2CCCN2C(=O)CNC1=O (cyclo(AGP[X2]AP)),12,–,–
CCCC[C@@H]1NC(=O)[C@@H]2CCCN2C(=O)CCP(O)(O)=C(Cc2ccccc2)NC(=O)[C@@H]2CCCN2C(=O)[C@H](CO)NC1=O (cyclo([Nle]SP[X1]P)),25,–,–
COC(=O)[C@@H]1CSSC[C@H](NC(C)=O)C(=O)N2CCC[C@H]2C(=O)N[C@H](Cc2ccccc2)P(=O)(O)CCC(=O)N2CCC[C@H]2C(=O)N1,3,–,–
CCCC[C@@H]1NC(=O)[C@@H]2CCCN2C(=O)CCP(=O)(O)[C@H](Cc2ccccc2)NC(=O)[C@@H]2CCCN2C(=O)CNC1=O,0.18,–,–
CCCC[C@@H]1NC(=O)[C@@H]2CCCN2C(=O)CCP(O)(O)=C(Cc2ccccc2)NC(=O)[C@@H]2CCCN2C(=O)CNC1=O (cyclo(GP[X1]P[Nle])),0.12,0.12,–
CCCC[C@@H]1NC(=O)[C@@H]2CCCN2C(=O)CCP(=O)(O)[C@H](Cc2ccccc2)NC(=O)[C@@H]2CCCN2C(=O)[C@H](CO)NC1=O (cyclo([Nle]SP[PheΨ(PO2HCH2)Gly]P)),40,–,–
"CCCCC1NC(=O)[C@H]2CCCN2C(=O)CCP(=O)(O)[C@@H](Cc2ccccc2)NC(=O)[C@@H]2CCCN2C(=O)CCNC1=O (stereo partly drawn) [(6S,9S,22R)-6-Benzyl-19-butyl-5-hydroxy-5-oxo-1,7,13,17,20-pentaaza-5lambda*5*-phospha-tricyclo[20.3.0.0*9,13*]pentacosane-2,8,14,18,21-pentaone]",0.09,–,0.09
COC(=O)[C@H]1CSSC[C@@H](NC(C)=O)C(=O)N2CCC[C@@H]2C(=O)N[C@@H](Cc2ccccc2)P(=O)(O)CCC(=O)N2CCC[C@@H]2C(=O)N1,45,–,–
C[C@@H]1NC(=O)[C@@H]2CCCN2C(=O)[C@H](C)NC(=O)CCP(=O)(O)[C@H](Cc2ccccc2)NC(=O)[C@@H]2CCCN2C(=O)CNC1=O (cyclo(AGP[PheΨ(PO2HCH2)Gly]AP)),20,–,–
O=C1NCC(=O)N2CCC[C@H]2C(=O)N[C@@H](Cc2ccccc2)P(=O)(O)CCC(=O)N2CCC[C@@H]12,9,–,–
O=C1NCC(=O)N2CCC[C@H]2C(O)N=C(Cc2ccccc2)P(O)(O)=CCC(=O)N2CCC[C@@H]12 (stereo partly drawn),6,–,–
